The text below walks through data of the supplement of paper PMC10307832.

Test in all cases: relative viability (nuclei count vs DMSO), 5 days (fraction); higher = more cells survive
Compound in the experiment “IPA-3 + Lapatinib”: C1=CC=C2C(=C1)C=CC(=C2SSC3=C(C=CC4=CC=CC=C43)O)O [IPA-3] + CS(=O)(=O)CCNCc1ccc(-c2ccc3ncnc(Nc4ccc(OCc5cccc(F)c5)c(Cl)c4)c3c2)o1 [Lapatinib] (partner 2 µM)
Summed up: (§1)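 Dosing by pin tool came one day after lung cancer cell lines were seeded in 1536-well plates, using either one drug or a fixed anchor-drug dose plus five library-drug doses (not always all listed) in √10 steps. After 5 days, nuclei were counted on 4× images. Relative viability is treated-well nuclei count divided by vehicle-well nuclei count, and values are medians of duplicate plates.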

Compound in the experiment “Doramapimod + Trametinib”: Cc1ccc(-n2nc(C(C)(C)C)cc2NC(=O)Nc2ccc(OCCN3CCOCC3)c3ccccc23)cc1 [Doramapimod] + CC(=O)Nc1cccc(-n2c(=O)n(C3CC3)c(=O)c3c(Nc4ccc(I)cc4F)n(C)c(=O)c(C)c32)c1 [Trametinib] (partner 0.02 µM)
Summed up:
as §1

Compound in the experiment “IPA-3 + Pemetrexed”: C1=CC=C2C(=C1)C=CC(=C2SSC3=C(C=CC4=CC=CC=C43)O)O [IPA-3] + Nc1nc2[nH]cc(CCc3ccc(C(=O)N[C@@H](CCC(=O)O)C(=O)O)cc3)c2c(=O)[nH]1 [Pemetrexed] (partner 0.2 µM)
Summed up: as §1

Compound in the experiment “RAF265 + Tozasertib”: Cn1c(Nc2ccc(C(F)(F)F)cc2)nc2cc(Oc3ccnc(-c4ncc(C(F)(F)F)[nH]4)c3)ccc21 [RAF265] + Cc1cc(Nc2cc(N3CCN(C)CC3)nc(Sc3ccc(NC(=O)C4CC4)cc3)n2)n[nH]1 [Tozasertib] (partner 0.1 µM)
Summed up:
as §1

As to UMC-11, the relative viability turned out to be 0.944 with IPA-3 + Lapatinib (first compound 0.2 µM); 1.1 with IPA-3 + Lapatinib (first compound 0.6325 µM); 0.956 with IPA-3 + Lapatinib (first compound 2 µM); 0.804 with IPA-3 + Lapatinib (first compound 6.325 µM); 1.06 with IPA-3 + Lapatinib (first compound 20 µM); 0.689 with Doramapimod + Trametinib (first compound 0.02 µM). Also, the relative viability with Doramapimod + Trametinib (first compound 0.06325 µM) came to 0.638; with Doramapimod + Trametinib (first compound 0.2 µM), 0.621; with Doramapimod + Trametinib (first compound 0.6325 µM), 0.463; in the experiment with Doramapimod + Trametinib (first compound 2 µM), 0.539; with IPA-3 + Pemetrexed (first compound 0.2 µM), 0.869; in the experiment with IPA-3 + Pemetrexed (first compound 0.6325 µM) it was 0.756. In addition, the relative viability is 0.83 with IPA-3 + Pemetrexed (first compound 2 µM); 0.769 in the experiment with IPA-3 + Pemetrexed (first compound 6.325 µM); 0.943 with IPA-3 + Pemetrexed (first compound 20 µM); 0.191 with RAF265 + Tozasertib (first compound 0.01 µM); 0.212 with RAF265 + Tozasertib (first compound 0.03162 µM); 0.201 with RAF265 + Tozasertib (first compound 0.1 µM). Besides, the relative viability with RAF265 + Tozasertib (first compound 0.3162 µM) was found to be 0.19; with RAF265 + Tozasertib (first compound 1 µM), 0.174.
